Values of other authors as cited in patent publication US20160101079A1 (priority 2014, published 2016).

How the values were obtained:
[1] = tested on: glycoprotein shedding (Ebola virus GP; TACE)
[2] = tested on: Human Foreskin (HF) cells infected with HSV-2-strain G; conditions: 3 to 1.5 mM
rotaviruses = conditions: 10 mM

Structure (SMILES) | concentration at which inhibition of GP shedding was observed [1] [mM] | further results
COc1ccc(S(=O)(=O)N2Cc3ccccc3C[C@@H]2C(=O)NO)cc1 [MMP-8 inhibitor I] | 5 | –
O=C(O)c1ccccn1 [picolinic acid] | – | effect on HSV-2 infected HF cells [2]: cause apoptosis of HF infected cells
CNC(=O)[C@@H](NC(=O)[C@H](CC(C)C)[C@H](O)C(=O)NO)C(C)(C)C [BB2516] | 0.5 | –
CNC(=O)[C@H](Cc1c[nH]c2ccccc12)NC(=O)[C@@H](CC(=O)NO)CC(C)C [GM6001] | 5 | –
O=C(O)CN(CCN(CC(=O)O)CC(=O)O)CC(=O)O [EDTA, ethylenediaminetetraacetic acid] | – | effect on rotavirus particles (rotaviruses): single-shelled, double-layered, non-infectious viral particles
